Test results as given in US11787847B2, “Method of identifying malodor modulating compounds” (FIRMENICH SA, priority 2017, dated 2023).

Tests used:
mouse receptor Olfr1193 = biological target: T1, mouse receptor Olfr1193 (Mus musculus, UniProt A2AV13); assay: cell-based dose-response, cAMP increase by HTRF, HEK293T cells (endogenous RTP1 activated) co-transfected with human Golf, Lucy-FLAG-Rho tagged receptor
T1 construct: cAMP HTRF
T1 sequence (A2AV13 1-318): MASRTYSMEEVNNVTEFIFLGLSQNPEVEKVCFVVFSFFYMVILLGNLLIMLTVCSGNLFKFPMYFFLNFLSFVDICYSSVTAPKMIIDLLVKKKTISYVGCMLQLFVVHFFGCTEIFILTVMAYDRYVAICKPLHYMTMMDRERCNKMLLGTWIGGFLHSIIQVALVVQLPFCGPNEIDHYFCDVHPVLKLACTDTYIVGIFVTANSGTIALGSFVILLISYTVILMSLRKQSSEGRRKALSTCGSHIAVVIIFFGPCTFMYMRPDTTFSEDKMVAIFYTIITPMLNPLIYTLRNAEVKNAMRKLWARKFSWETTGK
Description: (§1) Functional dose-response experiments were performed to evaluate the level of DMTS activity of the modified cell line expressing individual putative DMTS receptors. Using a cell-based assay, mouse receptor Olfr1193, Olfr1093, Olfr1097, Olrf166, Olfr169, Olfr738 and Olfr742, and human receptor OR4S2 and OR52N5 were tested in an HEK293T cell line wherein the endogenous RTP1 gene has been activated and the odorant receptor chaperone protein was expressed (described in WO2016/201153). The mouse receptor genes were tagged with a Lucy-FLAG®-Rho tag combination and the human receptors were tagged with a Rho-FLAG® tag combination resulting in a tag:receptor fusion protein for the cell based assay. Receptor genes were co-transfected with the canonical olfactory human G-protein alpha subunit Golf gene and were exposed to increasing concentrations of the malodor odorant. Co-expression of the human Golf activates the Gs transduction pathway that leads to an internal cAMP increase upon binding to the appropriate ligand. Odorant-induced activity was detected by measuring the cAMP increase in the cytosol using an Homogeneous Time Resolved Fluorescence (HTRF) based kit (CisBio, cAMP dynamic 2 kit, cat. 62AM4PEJ). […] The activity levels are reported by the potency of the DMTS induced-response for each receptor as a measure of the EC50 value (the effective concentration at which the receptor responds at its half-maximal activation efficacy level for a given compound).
(§2) Functional dose-response experiments were performed to confirm the DMTS activity on the DMTS receptors identified in Example 2 and to further characterize their response to DMDS. Using the same cell-based assay described in Example 2, mouse receptors Olfr1193, Olfr1093, Olfr1097, Olfr166, Olfr169, Olfr738, Olfr742 and of human odorant receptor OR4S2 were tested with increasing concentration of DMTS, DMDS or butyric acid (control). […] A weak response for OR4S2 and Olfr169 to butyric acid was visible but was too weak to consider butyric acid as a representative ligand for these receptors. The activity levels are reported by the potency of DMTS or DMDS induced-response for each receptor as a measure of the EC50 value, EC50DMTS and EC50DMDS respectively. […] Competitive antagonists at the malodor binding site of these receptors have the potential to reduce the unpleasant perception of both DMTS and DMDS.

mouse receptor Olfr169 = biological target: T2, mouse receptor Olfr169 (Mus musculus, UniProt Q7TS53); assay: as above
T2 construct: cAMP HTRF
T2 sequence (Q7TS53 1-313): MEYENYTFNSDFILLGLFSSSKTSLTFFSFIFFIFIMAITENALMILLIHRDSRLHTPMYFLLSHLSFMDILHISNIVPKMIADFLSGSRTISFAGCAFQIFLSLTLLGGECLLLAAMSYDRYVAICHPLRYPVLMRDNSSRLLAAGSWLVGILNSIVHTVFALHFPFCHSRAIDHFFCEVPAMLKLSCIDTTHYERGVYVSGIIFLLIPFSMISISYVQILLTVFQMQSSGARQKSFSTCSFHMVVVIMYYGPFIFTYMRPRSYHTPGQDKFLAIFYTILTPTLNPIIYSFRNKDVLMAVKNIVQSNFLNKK
Description: as §1, §2

[1] = tested on: mouse receptors Olfr1193, Olfr1093, Olfr1097, Olfr166, Olfr169, Olfr738, Olfr742 and human odorant receptor OR4S2; assay: cAMP HTRF dose-response assay, DMTS/DMDS response profiles (Example 5); assay type: cell-based; details: increasing concentration of compound; relative to butyric acid control
Description: Functional dose-response experiments were performed to evaluate the level of DMTS activity of the modified cell line expressing individual putative DMTS receptors. Using a cell-based assay, mouse receptor Olfr1193, Olfr1093, Olfr1097, Olrf166, Olfr169, Olfr738 and Olfr742, and human receptor OR4S2 and OR52N5 were tested in an HEK293T cell line wherein the endogenous RTP1 gene has been activated and the odorant receptor chaperone protein was expressed (described in WO2016/201153). The mouse receptor genes were tagged with a Lucy-FLAG®-Rho tag combination and the human receptors were tagged with a Rho-FLAG® tag combination resulting in a tag:receptor fusion protein for the cell based assay. Receptor genes were co-transfected with the canonical olfactory human G-protein alpha subunit Golf gene and were exposed to increasing concentrations of the malodor odorant. Co-expression of the human Golf activates the Gs transduction pathway that leads to an internal cAMP increase upon binding to the appropriate ligand. Odorant-induced activity was detected by measuring the cAMP increase in the cytosol using an Homogeneous Time Resolved Fluorescence (HTRF) based kit (CisBio, cAMP dynamic 2 kit, cat. 62AM4PEJ). […]

human receptor OR5AC2 = biological target: T3, human receptor OR5AC2 (Homo sapiens, UniProt Q9NZP5); assay: cell-based dose-response, Ca2+ increase (Calcium 5 dye, FLIPR), HEK293T line stably expressing FLAG-Rho tagged receptor with human Gα15; details: FIG. 3, Example 3, SEQ ID NO: 32, stable HEK293T
T3 construct: The receptors were tagged with a FLAG®-Rho tag combination; expressed in transfected cells
T3 sequence (Q9NZP5 1-309): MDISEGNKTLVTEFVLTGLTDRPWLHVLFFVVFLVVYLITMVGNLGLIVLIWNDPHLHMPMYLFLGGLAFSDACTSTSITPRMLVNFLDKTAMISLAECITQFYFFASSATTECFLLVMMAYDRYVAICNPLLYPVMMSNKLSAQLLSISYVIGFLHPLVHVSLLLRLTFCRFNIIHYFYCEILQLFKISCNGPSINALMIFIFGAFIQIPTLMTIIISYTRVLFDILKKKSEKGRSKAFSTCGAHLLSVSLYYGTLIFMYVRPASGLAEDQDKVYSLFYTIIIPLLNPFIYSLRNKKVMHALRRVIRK
Description: Functional dose-response experiments were performed to evaluate the level of DMTS activity of the modified cell lines expressing individual putative DMTS receptors. A cell line stably expressing a human receptor was generated in a HEK293T cell line for each of the following human receptors: OR2L13, OR4C15, OR5AC2, OR8H3, OR11G2 or OR52N2. The receptors were tagged with a FLAG®-Rho tag combination and stably co-expressed with the human G-protein alpha subunit Gals for the cell based assay. Co-expression of the human Gals activates the Gq transduction pathway that leads to an internal Ca^2+ increase upon binding to the appropriate ligand. Receptors were exposed to increasing concentrations of DMTS. Odorant-induced activity was detected by measuring the Ca^2+ increase in the cytosol using a calcium sensitive fluorescent dye (Molecular Devices, Calcium 5 dye, cat. R8186) and measuring the change in Relative Fluorescence Ratio (RFU) using a fluorometric imaging plate reader (Molecular Devices, FLIPR) following odorant exposure. […] A cell line lacking a receptor was used as a control for non-specific activity at high compound concentrations (‘No receptor’). The activity levels are reported by the potency of the DMTS induced-response for each receptor as a measure of the EC50 value.

EC50 (mouse receptor Olfr1193; FIG. 2, Example 2, SEQ ID NO: 2): 55 µM | EC50 (mouse receptor Olfr1193; FIG. 5, Example 5, SEQ ID NO: 2): 16 µM | EC50 (mouse receptor Olfr169; FIG. 2, Example 2, SEQ ID NO: 10): 32 µM | EC50 (mouse receptor Olfr169; FIG. 5, Example 5, SEQ ID NO: 10): 23 µM | EC50 (human receptor OR5AC2): 27 µM
Compound: CSSSC [DMTS, dimethyl trisulfide]
receptor activity (cAMP increase) [1]: strong dose-dependent increase of the receptor activity
